# Source: patent US4364958A, “1-Substituted-3-cycloalkyl-sulfonyl-pyrrolidine-2,5-dione derivatives and fungicidal compositions thereof” (Chinoin Gyogyszer es Vegyeszeti Termekek Gyara Rt., priority 1979, dated 1982)
# Read-outs that look alike come from different tables or passages of the source.
# Tests used:
# [1] = test system: Saccharomyces cerevisiae OKI.1282; assay: minimal inhibitory concentration in Sabouraud medium; type: cell-based; settings: for MIC: Saccharomyces cerevisiae
# From the text: Saccharomyces cerevisiae OKI.1282
# (§1) As a medium Saboroud medium was employed.
# [2] = test system: Trichophyton mentagrophytes CBS.50148; assay: as above; type: cell-based; settings: for MIC: Trichophyton mentagrophytes
# From the text: Trichophyton mentagrophytes CBS.50148
# as §1
# Ascochyta pisi = assay: activity against phytopathogenic fungi; type: cell-based
# Candida albicans CBS.562 = assay: minimal inhibitory concentration in Sabouraud medium; type: cell-based; settings: for MIC: Candida albicans
# From the text: Candida albicans CBS.562 "2"
# as §1
# [3] = test system: Trichophyton rubrum CBS.30338; assay: as above; type: cell-based; settings: Trichophyton rubrum
# From the text: Trichophyton rubrum CBS.30338
# as §1
# Candida krusei 79/K47 = assay: as above; settings: Pichia kudriavzevii, read-out: minimal inhibitory concentration
# [4] = test system: Aspergillus flavus CBS.24765; assay: as above; type: cell-based; settings: for MIC: Aspergillus flavus
# From the text: Aspergillus flavus CBS.24765
# as §1
# Phytophtora infestans = type: cell-based
# Botrytis cinerea = assay: activity against phytopathogenic fungi; type: cell-based
# Verticillium albo-atrum = assay: activity against phytopathogenic fungi; type: cell-based
# [5] = test system: Aspergillus niger CBS.12648; assay: minimal inhibitory concentration in Sabouraud medium; type: cell-based; settings: Aspergillus niger
# From the text: Aspergillus niger CBS.12648
# as §1
# Venturia = assay: activity against phytopathogenic fungi; type: cell-based
# [6] = test system: Penicillium digitatum CBS.31948; assay: minimal inhibitory concentration in Sabouraud medium; type: cell-based; settings: for MIC: Penicillium digitatum
# From the text: Penicillium digitatum CBS.31948
# as §1
# [7] = test system: Cryptococcus neoform. 78/K16; assay: as above; settings: read-out: minimal inhibitory concentration
# [8] = test system: Fusarium oxysporum DSM.10975; assay: as above; type: cell-based
# From the text: Fusarium oxysporum DSM.10975
# as §1
# [9] = test system: Penicillium digitatum CCM.F-382; assay: as above; type: cell-based; settings: for MIC: Penicillium digitatum
# From the text: Penicillium digitatum CCM.F-382
# as §1
# Taphrina deformans = assay: activity against phytopathogenic fungi; type: cell-based
# [10] = test system: Epidermophyton floccosum OKI/IV.; assay: minimal inhibitory concentration in Sabouraud medium; type: cell-based; settings: for MIC: Epidermophyton floccosum
# From the text: Epidermophyton floccosum OKI/IV.
# as §1
# [11] = test system: Penicillium chrysogenium CCM.F-362; assay: as above; type: cell-based; settings: for MIC: Penicillium
# From the text: Penicillium chrysogenium CCM.F-362
# as §1
# [12] = test system: Fusarium culmorum DSM.11425; assay: as above; type: cell-based
# From the text: Fusarium culmorum DSM.11425
# as §1
# [13] = test system: Sporotrichum schenkii CBS.34035; assay: as above; type: cell-based; settings: 288 hours
# From the text: Sporotrichum schenkii CBS.34035
# as §1
# Sclerotinia sclerotiorum = assay: activity against phytopathogenic fungi; type: cell-based
# [14] = test system: Candida tropicalis CBS.433; assay: minimal inhibitory concentration in Sabouraud medium; type: cell-based; settings: for MIC: Candida tropicalis
# From the text: Candida tropicalis CBS.433 "3"
# as §1
# [15] = test system: Aspergillus fumigatus CBS.11326; assay: as above; type: cell-based; settings: for MIC: Aspergillus fumigatus
# From the text: Aspergillus fumigatus CBS.11326
# as §1
# [16] = test system: Microsporum gypseum ver. vinosum CBS.10064; assay: as above; type: cell-based; settings: Nannizzia gypsea, 72 h
# From the text: Microsporum gypseum ver. vinosum CBS.10064
# as §1
# Cercospora beticola = assay: activity against phytopathogenic fungi; type: cell-based
# [17] = test system: Fusarium monoliforme DSM.11778; assay: minimal inhibitory concentration in Sabouraud medium; type: cell-based; settings: for MIC: Fusarium
# From the text: Fusarium monoliforme DSM.11778
# as §1
# [18] = test system: Aspergillus niger CCM.F-330; assay: as above; type: cell-based; settings: for MIC: Aspergillus niger
# From the text: Aspergillus niger CCM.F-330
# as §1
# [19] = test system: Fusarium graminocorum DSM.11802; assay: as above; type: cell-based
# From the text: Fusarium graminocorum DSM.11802
# as §1
# Verticillium dahlise = assay: activity against phytopathogenic fungi; type: cell-based
# [20] = test system: Penicillium chrysogenium CBS.19646; assay: minimal inhibitory concentration in Sabouraud medium; type: cell-based; settings: for MIC: Penicillium
# From the text: Penicillium chrysogenium CBS.19646
# as §1
smiles,measurement,setting,value
"O=C1CC(S(=O)(=O)C2CCCCC2)C(=O)N1c1ccccc1 (stereo not shown) [1-Phenyl-3-cyclohexyl-sulfonyl-pyrrolidine-2,5-dione]",minimal inhibitory concentration,[1]; 24 hours,75 µg/mL
same,minimal inhibitory concentration,[1]; 48 hours,75 µg/mL
same,MIC,"[1]; OKI.1282, 24 h, 24 hours",50 µg/mL
same,MIC,"[1]; OKI.1282, 48 h, 48 hours",50 µg/mL
same,minimal inhibitory concentration,[2]; 72 hours,2.5 µg/mL
same,MIC,"[2]; CBS.50148, 72 h, 72 hours, read-out: minimal inhibitory concentration",5 µg/mL
same,MIC,"[2]; CBS.50148, 144 h, 144 hours, read-out: minimal inhibitory concentration",10 µg/mL
same,MIC,"[2]; CBS.50148, read-out: Minimal inhibitory concentration inhibiting the growth",2.5 µg/mL
same,activity against Ascochyta pisi,Ascochyta pisi,active
same,minimal inhibitory concentration,Candida albicans CBS.562; 24 hours,50 µg/mL
same,minimal inhibitory concentration,Candida albicans CBS.562; 48 hours,50 µg/mL
same,MIC,"Candida albicans CBS.562; CBS.562, 24 h, 24 hours",75 µg/mL
same,MIC,"Candida albicans CBS.562; CBS.562, 48 h, 48 hours",100 µg/mL
same,MIC,"[3]; CBS.30338, 72 h, 72 hours",2.5 µg/mL
same,MIC,"[3]; CBS.30338, 144 h, 144 hours",10 µg/mL
same,MIC,"[3]; CBS.30338, 288 h, 288 hours",10 µg/mL
same,MIC,"Candida krusei 79/K47; 79/K47, 24 h",10 µg/mL
same,MIC,"Candida krusei 79/K47; 79/K47, 48 h",10 µg/mL
same,minimal inhibitory concentration,[4]; 72 hours,75 µg/mL
same,minimal inhibitory concentration,[4]; 144 hours,150 µg/mL
same,minimal inhibitory concentration,[4]; 288 hours,200 µg/mL
same,MIC,"[4]; CBS.24765, 72 h, 72 hours",100 µg/mL
same,MIC,"[4]; CBS.24765, 144 h, 144 hours",200 µg/mL
same,MIC,"[4]; CBS.24765, 288 h, 288 hours",250 µg/mL
same,activity against Phytophtora infestans,Phytophtora infestans,active
same,activity against Botrytis cinerea,Botrytis cinerea,active
same,activity against Verticillium albo-atrum,Verticillium albo-atrum,active
same,MIC,"[5]; CBS.12648, 72 h, 72 hours",75 µg/mL
same,MIC,"[5]; CBS.12648, 144 h, 144 hours",150 µg/mL
same,MIC,"[5]; CBS.12648, 288 h, 288 hours",150 µg/mL
same,activity against Venturia,Venturia,active
same,minimal inhibitory concentration,[6]; 288 hours,50 µg/mL
same,MIC,"[6]; CBS.31948, 72 h, 72 hours",10 µg/mL
same,MIC,"[6]; CBS.31948, 144 h, 144 hours",25 µg/mL
same,MIC,"[6]; CBS.31948, 288 h, 288 hours",25 µg/mL
same,MIC,[7]; 24 h,25 µg/mL
same,MIC,[7]; 48 h,25 µg/mL
same,MIC,[8]; 72 hours,50 µg/mL
same,MIC,[8]; 144 hours,75 µg/mL
same,MIC,[8]; 288 hours,75 µg/mL
same,minimal inhibitory concentration,[9]; 288 hours,50 µg/mL
same,MIC,"[9]; CCM.F382, 144 h, 144 hours",50 µg/mL
same,MIC,"[9]; CCM.F382, 288 h, 288 hours",75 µg/mL
same,activity against Taphrina deformans,Taphrina deformans,active
same,minimal inhibitory concentration,[10]; 144 hours,2.5 µg/mL
same,minimal inhibitory concentration,[10]; 288 hours,10 µg/mL
same,MIC,"[10]; 144 h, read-out: minimal inhibitory concentration",5 µg/mL
same,MIC,"[10]; 288 h, read-out: minimal inhibitory concentration",5 µg/mL
same,MIC,[10]; read-out: Minimal inhibitory concentration inhibiting the growth,1 µg/mL
same,minimal inhibitory concentration,[11]; 144 hours,150 µg/mL
same,MIC,"[11]; CCM.F362, 72 h, 72 hours",75 µg/mL
same,MIC,"[11]; CCM.F362, 144 h, 144 hours",200 µg/mL
same,MIC,"[11]; CCM.F362, 288 h, 288 hours",200 µg/mL
same,MIC,[12]; 72 hours,50 µg/mL
same,MIC,[12]; 144 hours,50 µg/mL
same,MIC,[12]; 288 hours,100 µg/mL
same,minimal inhibitory concentration,[13],100 µg/mL
same,MIC,"[13]; Sporotrichum, CBS.34035, 288 h",50 µg/mL
same,activity against Sclerotinia sclerotiorum,Sclerotinia sclerotiorum,active
same,minimal inhibitory concentration,[14]; 24 hours,75 µg/mL
same,minimal inhibitory concentration,[14]; 48 hours,75 µg/mL
same,MIC,"[14]; CBS.433, 24 h, 24 hours",150 µg/mL
same,MIC,"[14]; CBS.433, 48 h, 48 hours",150 µg/mL
same,minimal inhibitory concentration,[15]; 288 hours,200 µg/mL
same,MIC,"[15]; CBS.11326, 72 h, 72 hours",50 µg/mL
same,MIC,"[15]; CBS.11326, 144 h, 144 hours",150 µg/mL
same,MIC,"[15]; CBS.11326, 288 h, 288 hours",150 µg/mL
same,MIC,[16],10 µg/mL
same,activity against Cercospora beticola,Cercospora beticola,active
same,minimal inhibitory concentration,[17]; 72 hours,75 µg/mL
same,minimal inhibitory concentration,[17]; 288 hours,200 µg/mL
same,MIC,"[17]; DSM.11778, 72 h, 72 hours",100 µg/mL
same,MIC,"[17]; DSM.11778, 144 h, 144 hours",150 µg/mL
same,MIC,"[17]; DSM.11778, 288 h, 288 hours",150 µg/mL
same,minimal inhibitory concentration,[18]; 72 hours,75 µg/mL
same,minimal inhibitory concentration,[18]; 144 hours,150 µg/mL
same,minimal inhibitory concentration,[18]; 288 hours,150 µg/mL
same,MIC,"[18]; CCM.F330, 72 h, 72 hours",150 µg/mL
same,MIC,"[18]; CCM.F330, 144 h, 144 hours",200 µg/mL
same,MIC,"[18]; CCM.F330, 288 h, 288 hours",250 µg/mL
same,MIC,[19]; 72 hours,50 µg/mL
same,MIC,[19]; 144 hours,100 µg/mL
same,MIC,[19]; 288 hours,100 µg/mL
same,activity against Verticillium dahlise,Verticillium dahlise,active
same,minimal inhibitory concentration,[20]; 288 hours,150 µg/mL
same,MIC,"[20]; CBS.19646, 72 h, 72 hours",50 µg/mL
same,MIC,"[20]; CBS.19646, 144 h, 144 hours",75 µg/mL
same,MIC,"[20]; CBS.19646, 288 h, 288 hours",75 µg/mL
